Source: patent US9738634B2, “Heterocyclic amide compound and herbicide” (SYNGENTA PARTICIPATIONS AG, priority 2013, dated 2017)

Legend:
Type in all cases: in vivo
barnyard grass [1] = assay: Test Example 1: weedkilling efficacy, preemergent weed treatment in the submerged state; A: barnyard grass; conditions: treatment dosage 252 g/ha
Outline: (§1)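 Emulsion diluted with water to the specified per-hectare dosage is applied onto flood water (4 cm) over alluvial soil on the sowing day, with barnyard grass, bulrush and pondweed seeded and rice (2.5-leaf) transplanted; plants grow at 25–30 °C and are rated at 3 weeks.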

bulrush [2] = assay: Test Example 1: weedkilling efficacy, preemergent weed treatment in the submerged state; B: bulrush; conditions: treatment dosage 252 g/ha
Outline: as §1

oval-leafed pondweed [3] = assay: Test Example 1: weedkilling efficacy, preemergent weed treatment in the submerged state; C: oval-leafed pondweed; conditions: treatment dosage 252 g/ha
Outline: as §1

transplanted rice = assay: Test Example 1: preemergent weed treatment in the submerged state, effect on crop; a: transplanted rice; conditions: treatment dosage 252 g/ha
Outline: as §1

barnyard grass [4] = assay: Test Example 2: weedkilling efficacy, growth period weed treatment in the submerged state; A: barnyard grass; conditions: treatment dosage 252 g/ha
Outline: (§2)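 First, alluvial soil in pots is flooded to 4 cm and mixed seed is sown. Next, plants grow in a greenhouse at 25 to 30° C until the 1-2 leaf stage. Then diluted emulsion is applied onto the water surface at the given g/ha rate, and injury is assessed after 3 weeks.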

bulrush [5] = assay: Test Example 2: weedkilling efficacy, growth period weed treatment in the submerged state; B: bulrush; conditions: treatment dosage 252 g/ha
Outline: as §2

oval-leafed pondweed [6] = assay: Test Example 2: weedkilling efficacy, growth period weed treatment in the submerged state; C: oval-leafed pondweed; conditions: treatment dosage 252 g/ha
Outline: as §2

crabgrass [7] = assay: Test Example 3: weedkilling efficacy through soil treatment; D: crabgrass; conditions: treatment dosage 315 g/ha
Outline: (§3)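 Crop and weed responses were judged three weeks after a uniform surface spray of the water-diluted emulsion at the given g/ha rate. Seeds sat beneath about 1.5 cm of sterilized diluvial soil, and boxes stood in a greenhouse at 25 to 30° C.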

green foxtail [8] = assay: Test Example 3: weedkilling efficacy through soil treatment; E: green foxtail; conditions: treatment dosage 315 g/ha
Outline: as §3

wild oat = assay: Test Example 3: weedkilling efficacy through soil treatment; G: wild oat; conditions: treatment dosage 315 g/ha
Outline: as §3

black-grass [9] = assay: Test Example 3: weedkilling efficacy through soil treatment; H: black-grass; conditions: treatment dosage 315 g/ha
Outline: as §3

Italian ryegrass [10] = assay: Test Example 3: weedkilling efficacy through soil treatment; I: Italian ryegrass; conditions: treatment dosage 315 g/ha
Outline: as §3

Indian mallow [11] = assay: Test Example 3: weedkilling efficacy through soil treatment; K: Indian mallow; conditions: treatment dosage 315 g/ha
Outline: as §3

redroot pigweed [12] = assay: Test Example 3: weedkilling efficacy through soil treatment; L: redroot pigweed; conditions: treatment dosage 315 g/ha
Outline: as §3

fig-leafed goosefoot [13] = assay: Test Example 3: weedkilling efficacy through soil treatment; M: fig-leafed goosefoot; conditions: treatment dosage 315 g/ha
Outline: as §3

chickweed [14] = assay: Test Example 3: weedkilling efficacy through soil treatment; N: chickweed; conditions: treatment dosage 315 g/ha
Outline: as §3

birds-eye speedwell [15] = assay: Test Example 3: weedkilling efficacy through soil treatment; p: birds-eye speedwell; conditions: treatment dosage 315 g/ha
Outline: as §3

directly sown rice [16] = assay: Test Example 3: soil treatment, effect on crop; b: directly sown rice; conditions: treatment dosage 315 g/ha
Outline: as §3

corn [17] = assay: Test Example 3: soil treatment, effect on crop; c: corn; conditions: treatment dosage 315 g/ha
Outline: as §3

soybean [18] = assay: Test Example 3: soil treatment, effect on crop; d: soybean; conditions: treatment dosage 315 g/ha
Outline: as §3

wheat [19] = assay: Test Example 3: soil treatment, effect on crop; e: wheat; conditions: treatment dosage 315 g/ha
Outline: as §3

beet [20] = assay: Test Example 3: soil treatment, effect on crop; f: beet; conditions: treatment dosage 315 g/ha
Outline: as §3

crabgrass [21] = assay: Test Example 4: weedkilling efficacy by foliar treatment; D: crabgrass; conditions: treatment dosage 315 g/ha
Outline: (§4)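 Seeds are spot-sown into sterilized diluvial soil and covered with about 1.5 cm of soil. After 14 days' greenhouse growth at 25 to 30° C, plants are sprayed on stems and leaves with diluted emulsion at the stated g/ha rate, then scored at 3 weeks.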

green foxtail [22] = assay: Test Example 4: weedkilling efficacy by foliar treatment; E: green foxtail; conditions: treatment dosage 315 g/ha
Outline: as §4

black-grass [23] = assay: Test Example 4: weedkilling efficacy by foliar treatment; H: black-grass; conditions: treatment dosage 315 g/ha
Outline: as §4

Italian ryegrass [24] = assay: Test Example 4: weedkilling efficacy by foliar treatment; I: Italian ryegrass; conditions: treatment dosage 315 g/ha
Outline: as §4

Indian mallow [25] = assay: Test Example 4: weedkilling efficacy by foliar treatment; K: Indian mallow; conditions: treatment dosage 315 g/ha
Outline: as §4

redroot pigweed [26] = assay: Test Example 4: weedkilling efficacy by foliar treatment; L: redroot pigweed; conditions: treatment dosage 315 g/ha
Outline: as §4

fig-leafed goosefoot [27] = assay: Test Example 4: weedkilling efficacy by foliar treatment; M: fig-leafed goosefoot; conditions: treatment dosage 315 g/ha
Outline: as §4

chickweed [28] = assay: Test Example 4: weedkilling efficacy by foliar treatment; N: chickweed; conditions: treatment dosage 315 g/ha
Outline: as §4

catchweed = assay: Test Example 4: weedkilling efficacy by foliar treatment; O: catchweed; conditions: treatment dosage 315 g/ha
Outline: as §4

birds-eye speedwell [29] = assay: Test Example 4: weedkilling efficacy by foliar treatment; p: birds-eye speedwell; conditions: treatment dosage 315 g/ha
Outline: as §4

directly sown rice [30] = assay: Test Example 4: foliar treatment, effect on crop; b: directly sown rice; conditions: treatment dosage 315 g/ha
Outline: as §4

corn [31] = assay: Test Example 4: foliar treatment, effect on crop; c: corn; conditions: treatment dosage 315 g/ha
Outline: as §4

soybean [32] = assay: Test Example 4: foliar treatment, effect on crop; d: soybean; conditions: treatment dosage 315 g/ha
Outline: as §4

wheat [33] = assay: Test Example 4: foliar treatment, effect on crop; e: wheat; conditions: treatment dosage 315 g/ha
Outline: as §4

beet [34] = assay: Test Example 4: foliar treatment, effect on crop; f: beet; conditions: treatment dosage 315 g/ha
Outline: as §4

SMILES	A (barnyard grass) weedkilling efficacy grade (barnyard grass [1])	B (bulrush) weedkilling efficacy grade (bulrush [2])	C (oval-leafed pondweed) weedkilling efficacy grade (oval-leafed pondweed [3])	a (transplanted rice) effect on crop grade (transplanted rice)	A (barnyard grass) weedkilling efficacy grade (barnyard grass [4])	B (bulrush) weedkilling efficacy grade (bulrush [5])	C (oval-leafed pondweed) weedkilling efficacy grade (oval-leafed pondweed [6])	D (crabgrass) weedkilling efficacy grade (crabgrass [7])	E (green foxtail) weedkilling efficacy grade (green foxtail [8])	H (black-grass) weedkilling efficacy grade (black-grass [9])	I (Italian ryegrass) weedkilling efficacy grade (Italian ryegrass [10])	K (Indian mallow) weedkilling efficacy grade (Indian mallow [11])	L (redroot pigweed) weedkilling efficacy grade (redroot pigweed [12])	M (fig-leafed goosefoot) weedkilling efficacy grade (fig-leafed goosefoot [13])	N (chickweed) weedkilling efficacy grade (chickweed [14])	P (birds-eye speedwell) weedkilling efficacy grade (birds-eye speedwell [15])	b (directly sown rice) effect on crop grade (directly sown rice [16])	c (corn) effect on crop grade (corn [17])	d (soybean) effect on crop grade (soybean [18])	e (wheat) effect on crop grade (wheat [19])	also measured
CC1=C(c2ccsc2)C(=O)N(C(C)(C)C(=O)Nc2nc(C)ns2)CO1 [B-1-01]	5 (weed kill ratio 90% or more, (practically complete withering))	5 (weed kill ratio 90% or more, (practically complete withering))	5 (weed kill ratio 90% or more, (practically complete withering))	4 (weed kill ratio 70% or more, less than 90%)	5 (weed kill ratio 90% or more, (practically complete withering))	5 (weed kill ratio 90% or more, (practically complete withering))	5 (weed kill ratio 90% or more, (practically complete withering))	5 (weed kill ratio 90% or more, (practically complete withering))	5 (weed kill ratio 90% or more, (practically complete withering))	5 (weed kill ratio 90% or more, (practically complete withering))	5 (weed kill ratio 90% or more, (practically complete withering))	3 (weed kill ratio 40% or more, less than 70%)	4 (weed kill ratio 70% or more, less than 90%)	5 (weed kill ratio 90% or more, (practically complete withering))	3 (weed kill ratio 40% or more, less than 70%)	5 (weed kill ratio 90% or more, (practically complete withering))	5 (weed kill ratio 90% or more, (practically complete withering))	0 (weed kill ratio 5% or less (practically no effect))	2 (weed kill ratio 20% or more, less than 40%)	4 (weed kill ratio 70% or more, less than 90%)	G (wild oat) weedkilling efficacy grade (wild oat): 5 (weed kill ratio 90% or more, (practically complete withering)); f (beet) effect on crop grade (beet [20]): 3 (weed kill ratio 40% or more, less than 70%); D (crabgrass) weedkilling efficacy grade (crabgrass [21]): 5 (weed kill ratio 90% or more, (practically complete withering)); E (green foxtail) weedkilling efficacy grade (green foxtail [22]): 5 (weed kill ratio 90% or more, (practically complete withering)); H (black-grass) weedkilling efficacy grade (black-grass [23]): 5 (weed kill ratio 90% or more, (practically complete withering)); I (Italian ryegrass) weedkilling efficacy grade (Italian ryegrass [24]): 5 (weed kill ratio 90% or more, (practically complete withering)); K (Indian mallow) weedkilling efficacy grade (Indian mallow [25]): 4 (weed kill ratio 70% or more, less than 90%); L (redroot pigweed) weedkilling efficacy grade (redroot pigweed [26]): 5 (weed kill ratio 90% or more, (practically complete withering)); M (fig-leafed goosefoot) weedkilling efficacy grade (fig-leafed goosefoot [27]): 5 (weed kill ratio 90% or more, (practically complete withering)); N (chickweed) weedkilling efficacy grade (chickweed [28]): 4 (weed kill ratio 70% or more, less than 90%); O (catchweed) weedkilling efficacy grade (catchweed): 4 (weed kill ratio 70% or more, less than 90%); P (birds-eye speedwell) weedkilling efficacy grade (birds-eye speedwell [29]): 4 (weed kill ratio 70% or more, less than 90%); b (directly sown rice) effect on crop grade (directly sown rice [30]): 5 (weed kill ratio 90% or more, (practically complete withering)); c (corn) effect on crop grade (corn [31]): 4 (weed kill ratio 70% or more, less than 90%); d (soybean) effect on crop grade (soybean [32]): 4 (weed kill ratio 70% or more, less than 90%); e (wheat) effect on crop grade (wheat [33]): 1 (weed kill ratio 5% or more, less than 20%); f (beet) effect on crop grade (beet [34]): 4 (weed kill ratio 70% or more, less than 90%)
CC1=C(c2ccccc2)C(=O)N(C(C)(C)C(=O)Nc2cccc(Br)n2)CO1 [B-2-31]	5 (weed kill ratio 90% or more, (practically complete withering))	5 (weed kill ratio 90% or more, (practically complete withering))	5 (weed kill ratio 90% or more, (practically complete withering))	0 (weed kill ratio 5% or less (practically no effect))	5 (weed kill ratio 90% or more, (practically complete withering))	5 (weed kill ratio 90% or more, (practically complete withering))	0 (weed kill ratio 5% or less (practically no effect))	5 (weed kill ratio 90% or more, (practically complete withering))	5 (weed kill ratio 90% or more, (practically complete withering))	5 (weed kill ratio 90% or more, (practically complete withering))	5 (weed kill ratio 90% or more, (practically complete withering))	0 (weed kill ratio 5% or less (practically no effect))	5 (weed kill ratio 90% or more, (practically complete withering))	4 (weed kill ratio 70% or more, less than 90%)	5 (weed kill ratio 90% or more, (practically complete withering))	5 (weed kill ratio 90% or more, (practically complete withering))	5 (weed kill ratio 90% or more, (practically complete withering))	0 (weed kill ratio 5% or less (practically no effect))	0 (weed kill ratio 5% or less (practically no effect))	5 (weed kill ratio 90% or more, (practically complete withering))	f (beet) effect on crop grade (beet [20]): 5 (weed kill ratio 90% or more, (practically complete withering)); D (crabgrass) weedkilling efficacy grade (crabgrass [21]): 5 (weed kill ratio 90% or more, (practically complete withering)); E (green foxtail) weedkilling efficacy grade (green foxtail [22]): 5 (weed kill ratio 90% or more, (practically complete withering)); H (black-grass) weedkilling efficacy grade (black-grass [23]): 5 (weed kill ratio 90% or more, (practically complete withering)); I (Italian ryegrass) weedkilling efficacy grade (Italian ryegrass [24]): 5 (weed kill ratio 90% or more, (practically complete withering)); K (Indian mallow) weedkilling efficacy grade (Indian mallow [25]): 5 (weed kill ratio 90% or more, (practically complete withering)); L (redroot pigweed) weedkilling efficacy grade (redroot pigweed [26]): 5 (weed kill ratio 90% or more, (practically complete withering)); M (fig-leafed goosefoot) weedkilling efficacy grade (fig-leafed goosefoot [27]): 4 (weed kill ratio 70% or more, less than 90%); N (chickweed) weedkilling efficacy grade (chickweed [28]): 5 (weed kill ratio 90% or more, (practically complete withering)); O (catchweed) weedkilling efficacy grade (catchweed): 3 (weed kill ratio 40% or more, less than 70%); P (birds-eye speedwell) weedkilling efficacy grade (birds-eye speedwell [29]): 4 (weed kill ratio 70% or more, less than 90%); b (directly sown rice) effect on crop grade (directly sown rice [30]): 5 (weed kill ratio 90% or more, (practically complete withering)); c (corn) effect on crop grade (corn [31]): 4 (weed kill ratio 70% or more, less than 90%); d (soybean) effect on crop grade (soybean [32]): 5 (weed kill ratio 90% or more, (practically complete withering)); e (wheat) effect on crop grade (wheat [33]): 5 (weed kill ratio 90% or more, (practically complete withering)); f (beet) effect on crop grade (beet [34]): 4 (weed kill ratio 70% or more, less than 90%)
